Measured values as given in patent US10570184B2, “GLP-1/glucagon receptor co-agonists for medical use” (Novo Nordisk A/S, priority 2014, dated 2020).
Starred links: 1 amine or outer side, 2 acyl side, 3 side chain; linkers in the order of their positions; H or OH if unused. Non-standard residues stand in square brackets, D forms with d. Residues, ends and D or L forms follow the SMILES beside them. Groups on a side chain read outwards from the residue. *: point of attachment. C18 diacid = O=C(O)CCCCCCCCCCCCCCCCC(=O)*; γGlu = O=C(O)[C@H](CCC(=O)[*:2])N[*:1]; AEEA = NCCOCCOCC(=O)O; Aib = CC(C)(N)C(=O)O

Experiments:
[1] = Assay (III) ThT fibrillation assay for physical stability; type: physicochemical; details: 250 μM in 10 mM HEPES buffer, 37° C., shaking 960 rpm
Description: The purpose of this assay is to assess the physical stability of the glucagon derivatives of the invention in aqueous solutions. Low physical stability of a peptide may lead to amyloid fibril formation, which is observed as well-ordered, thread-like macromolecular structures in the sample, which eventually may lead to gel formation. This has traditionally been measured by visual inspection of the sample. However, that kind of measurement is very subjective and depending on the observer. Therefore, the application of a small molecule indicator probe is much more advantageous. Thioflavin T (ThT) is such a probe and has a distinct fluorescence signature when binding to fibrils [Naiki et al. (1989) Anal. Biochem. 177, 244-249; LeVine (1999) Methods. Enzymol. 309, 274-284]. […] The constant t0 is the time needed to reach 50% of maximum fluorescence. The two important parameters describing fibril formation are the lag-time calculated by t0−2τ and the apparent rate constant kapp 1/τ. Samples were prepared freshly before each assay. Each sample composition is described in the legends. The pH of the sample was adjusted to the desired value using appropriate amounts of concentrated NaOH and HCl. Thioflavin T was added to the samples from a stock solution in H2O to a final concentration of 1 μM. Sample aliquots of 200 μl (250 μM of the glucagon derivative in 10 mM HEPES buffer, pH 7.5) were placed in a 96 well microtiter plate (Packard OptiPlate™-96, white polystyrene). Usually, four or eight replica of each sample (corresponding to one test condition) were placed in one column of wells. The plate was sealed with Scotch Pad (Qiagen). Incubation at given temperature, shaking and measurement of the ThT fluorescence emission were done in a Fluoroskan Ascent FL fluorescence platereader (Thermo Labsystems). The temperature was adjusted to 37° C. The plate was incubated with orbital shaking adjusted to 960 rpm with an amplitude of 1 mm. Fluorescence measurement was done using excitation through a 444 nm filter and measurement of emission through a 485 nm filter. Each run was initiated by incubating the plate at the assay temperature for 10 min. The plate was measured every 20 minutes for a desired period of time. Between each measurement, the plate was shaken and heated as described. After completion of the ThT assay the four or eight replica of each sample was pooled and centrifuged at 20000 rpm for 30 minutes at 18° C. The supernatant was filtered through a 0.22 μm filter and an aliquot was transferred to a HPLC vial. The concentration of peptide in the initial sample and in the filtered supernatant was determined by reverse phase HPLC using an appropriate standard as reference. The percentage fraction the concentration of the filtered sample constituted of the initial sample concentration was reported as the recovery. The measurement points were saved in Microsoft Excel format for further processing and curve drawing and fitting was performed using GraphPad Prism. The background emission from ThT in the absence of fibrils was negligible. The data points are typically a mean of four or eight samples and shown with standard deviation error bars. Only data obtained in the same experiment (i.e. samples on the same plate) are presented in the same graph ensuring a relative measure of fibrillation between experiments. The data set may be fitted to Eq. (1).

[2] = target: T1, human GLP-1 receptor (Homo sapiens, UniProt P43220); experiment: Assay (II)(a) GLP-1 receptor binding, 125I-GLP-1 displacement SPA on BHK membranes; details: without presence of serum albumin; read-out: GLP-1R IC50 (nM) [Assay (II)(a)]
T1 construct: expressed in transfected cells; host or cells: membranes of BHK cells (parent BHKTS13), clone FCW467-12A
T1 sequence (P43220 24-463): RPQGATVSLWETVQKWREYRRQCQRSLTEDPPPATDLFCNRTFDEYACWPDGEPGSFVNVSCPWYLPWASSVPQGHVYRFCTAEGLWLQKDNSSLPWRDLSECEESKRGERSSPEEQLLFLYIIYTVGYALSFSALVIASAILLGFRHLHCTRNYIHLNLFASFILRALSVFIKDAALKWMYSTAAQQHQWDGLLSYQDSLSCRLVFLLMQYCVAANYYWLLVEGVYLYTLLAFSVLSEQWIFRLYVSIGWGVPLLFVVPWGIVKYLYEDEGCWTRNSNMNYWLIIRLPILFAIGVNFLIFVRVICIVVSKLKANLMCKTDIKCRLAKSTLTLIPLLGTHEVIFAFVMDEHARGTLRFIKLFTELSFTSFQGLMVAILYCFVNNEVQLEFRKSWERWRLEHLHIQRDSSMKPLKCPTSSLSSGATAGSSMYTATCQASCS
Method in brief: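 Membranes from BHK cells (clone FCW467-12A) stably expressing human GLP-1R were incubated with serially diluted compounds (8×10EE-13 to 8×10EE-7 M before addition) and [125I]-GLP-1-(7-36)NH2 with WGA SPA beads, 2 h at 30° C, pH 7.4. IC50 taken from displacement by non-linear regression. Run at ≤0.001% or 2.0% final serum albumin.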

ThT Assay Lag time (h) [Assay (III), pH 7.5] [1] | IC50 [2] | SMILES
45.0 h | 0.3 nM | CC[C@H](C)[C@H](NC(=O)[C@H](CC(C)C)NC(=O)[C@H](Cc1c[nH]c2ccccc12)NC(=O)[C@H](CCC(N)=O)NC(=O)[C@@H](NC(=O)[C@H](Cc1ccccc1)NC(=O)[C@H](CCC(=O)O)NC(=O)[C@H](CCCNC(=N)N)NC(=O)[C@H](C)NC(=O)[C@H](CCCNC(=N)N)NC(=O)[C@H](CCCNC(=N)N)NC(=O)[C@H](CC(C)C)NC(=O)[C@H](CC(=O)O)NC(=O)[C@H](CC(C)C)NC(=O)[C@H](Cc1ccc(O)cc1)NC(=O)[C@H](CCCCN)NC(=O)[C@H](CO)NC(=O)[C@H](CC(C)C)NC(=O)[C@H](CC(=O)O)NC(=O)[C@H](CO)NC(=O)[C@@H](NC(=O)[C@H](Cc1ccccc1)NC(=O)[C@@H](NC(=O)CNC(=O)[C@H](CCC(N)=O)NC(=O)C(C)(C)NC(=O)[C@@H](N)Cc1c[nH]cn1)[C@@H](C)O)[C@@H](C)O)C(C)C)C(=O)N[C@@H](CC(N)=O)C(=O)N[C@@H](CCCCNC(=O)CC[C@H](NC(=O)CC[C@H](NC(=O)COCCOCCNC(=O)COCCOCCNC(=O)CC[C@H](NC(=O)CCCCCCCCCCCCCCCCC(=O)O)C(=O)O)C(=O)O)C(=O)O)C(N)=O [Chem. 22, N^ε29-[(4S)-4-carboxy-4-[[(4S)-4-carboxy-4-[[2-[2-[2-[[2-[2-[2-[[(4S)-4-carboxy-4-(17-carboxyheptadecanoylamino)butanoyl]amino]ethoxy]ethoxy]acetyl]amino]ethoxy]ethoxy]acetyl]amino]butanoyl]amino]butanoyl]-[Aib2,Leu10,Leu16,Arg20,Glu21,Ile27,Lys29]-Glucagon amide] (H-H[Aib]QGTFTSDLSKYLDLRRAREFVQWLINK([γGlu-γGlu-AEEA-AEEA-γGlu-C18 diacid])-NH2; N-terminus assumed)
45.0 h | 0.9 nM | CC[C@H](C)[C@H](NC(=O)[C@H](CC(C)C)NC(=O)[C@H](Cc1c[nH]c2ccccc12)NC(=O)[C@H](CCC(N)=O)NC(=O)[C@@H](NC(=O)[C@H](Cc1ccccc1)NC(=O)[C@H](CCC(=O)O)NC(=O)[C@H](CCCNC(=N)N)NC(=O)[C@H](C)NC(=O)[C@H](CCCNC(=N)N)NC(=O)[C@H](CCCNC(=N)N)NC(=O)[C@H](CC(C)C)NC(=O)[C@H](CC(=O)O)NC(=O)[C@H](CC(C)C)NC(=O)[C@H](Cc1ccc(O)cc1)NC(=O)[C@H](CCCCN)NC(=O)[C@H](CO)NC(=O)[C@H](CC(C)C)NC(=O)[C@H](CC(=O)O)NC(=O)[C@H](CO)NC(=O)[C@@H](NC(=O)[C@H](Cc1ccccc1)NC(=O)[C@@H](NC(=O)CNC(=O)[C@H](CCC(N)=O)NC(=O)C(C)(C)NC(=O)[C@@H](N)Cc1c[nH]cn1)[C@@H](C)O)[C@@H](C)O)C(C)C)C(=O)N[C@@H](CO)C(=O)N[C@@H](CCCCNC(=O)CC[C@H](NC(=O)CC[C@H](NC(=O)COCCOCCNC(=O)COCCOCCNC(=O)CC[C@H](NC(=O)CCCCCCCCCCCCCCCCC(=O)O)C(=O)O)C(=O)O)C(=O)O)C(N)=O [Chem. 30, N^ε29-[(4S)-4-carboxy-4-[[(4S)-4-carboxy-4-[[2-[2-[2-[[2-[2-[2-[[(4S)-4-carboxy-4-(17-carboxyheptadecanoylamino)butanoyl]amino]ethoxy]ethoxy]acetyl]amino]ethoxy]ethoxy]acetyl]amino]butanoyl]amino]butanoyl]-[Aib2,Leu10,Leu16,Arg20,Glu21,Ile27,Ser28,Lys29]-Glucagon amide] (H-H[Aib]QGTFTSDLSKYLDLRRAREFVQWLISK([γGlu-γGlu-AEEA-AEEA-γGlu-C18 diacid])-NH2; N-terminus assumed)
